10 compounds from ChEMBL document CHEMBL1201862, “PubChem BioAssay data set” (2004) can be followed below.

Holding throughout (experiment): NCI-60 cell line screen, 48 h
The test system of assay [1] is SK-MEL-28.
Assay [2] relates to UACC-257.
The subject of assay [3] is Hs-578T.
For assay [4], the system named is MOLT-4.
The subject of assay [5] is COLO 205.
Assay [6] has as its system CCRF-CEM.
Assay [7] concerns EKVX.
For assay [8], the system named is IGROV-1.
The subject of assay [9] is RPMI-8226.
Assay [10] has as its system A498.
In assay [11] the test system is SNB-19.
The subject of assay [12] is OVCAR-3.
For assay [13], the system named is T47D.
Assay [14] has as its system UACC-62.
In assay [15] the test system is HT-29.
Assay [16] relates to RXF 393.
Assay [17] has as its system Malme-3M.
In assay [18] the test system is OVCAR-5.
Assay [19] deals with NCI-H522.
Assay [20] has as its system NCI-H23.

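Briefly, cells in 96-well plates were exposed to five compound concentrations for 48 h, and endpoints were estimated by linear interpolation. The concentration for 50% growth inhibition is given as GI50.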 Activity calls are given as the source filed them. Rule as the data show it: active = GI50 up to about 1.1 µM and inactive = higher.

As to `S=C(N1CCN(c2ccccc2)CC1)N1CCN(c2ccccc2)CC1`, the GI50 in [1] is 86.9 µM (inactive); in assay [2], > 100 µM (inactive); in [3], > 100 µM (inactive); in assay [4], 71.3 µM (inactive); in [5], > 100 µM (inactive); in [6] it was 24.4 µM (inactive). The GI50 in assay [7] was > 100 µM (inactive); in assay [8], 90.8 µM (inactive); in [9] it was > 100 µM (inactive); in assay [10], > 100 µM (inactive); in assay [11] it was > 100 µM (inactive); in assay [12], > 100 µM (inactive). Moreover, the GI50 in assay [13] was > 100 µM (inactive); in assay [14], > 100 µM (inactive); in [15], 55.2 µM (inactive); in [16], > 100 µM (inactive); in assay [17], > 100 µM (inactive); in assay [18], > 100 µM (inactive). Moreover, the GI50 in assay [19] and in assay [20] was > 100 µM (inactive) each time.

For the compound `ClCC[N+]12CC[N+](CCCl)(CC1)C2`, the GI50 in assay [1], in assay [2], in assay [3], in [4], in assay [5] and in assay [6] was > 100 µM (inactive) in each case. For the same compound, the GI50 in assay [7], in assay [8], in [9], in assay [10], in assay [11] and in [12] was > 100 µM (inactive) throughout. For the same compound, the GI50 in assay [13], in [14], in assay [15], in assay [16], in assay [17] and in assay [18] was > 100 µM (inactive) throughout. In addition, the GI50 in assay [19] and in assay [20] was > 100 µM (inactive) each time.

For `Cc1ccc(NC(=O)CC(=O)n2nc(C)c(/N=N/c3cccc(C)c3)c2C)cc1`, the GI50 was > 100 µM (inactive) in assay [1]; > 100 µM (inactive) in [2]; 38.5 µM (inactive) in assay [3]; > 100 µM (inactive) in assay [4]; > 100 µM (inactive) in [5]; 86.3 µM (inactive) in assay [6]. For the same compound, the GI50 in assay [7] is 31 µM (inactive); in assay [8], > 100 µM (inactive); in assay [9], > 100 µM (inactive); in assay [10] it was > 100 µM (inactive); in assay [11], 71.1 µM (inactive); in assay [12] it was > 100 µM (inactive). The GI50 was > 100 µM (inactive) in assay [13]; > 100 µM (inactive) in [14]; > 100 µM (inactive) in assay [15]; 67.3 µM (inactive) in [16]; > 100 µM (inactive) in assay [17]; > 100 µM (inactive) in assay [18]. Moreover, the GI50 in assay [19] and in assay [20] was > 100 µM (inactive) in each case.

In the case of `Cc1c2c(OCC(O)CN3CCN(c4ccccc4)CC3)nn(C)c(=O)c2c(C)n1-c1ccccc1` (stereo not given), the GI50 in assay [1] is 18.4 µM (inactive); in assay [2], 28 µM (inactive); in assay [3] it was 24.4 µM (inactive); in assay [4], 30.4 µM (inactive); in [5] it was 20.3 µM (inactive); in assay [6] it was 31.2 µM (inactive). Also, the GI50 is 34.8 µM (inactive) in assay [7]; 35.2 µM (inactive) in assay [8]; 21.6 µM (inactive) in [9]; 20.3 µM (inactive) in assay [10]; 34.3 µM (inactive) in assay [11]; 20.5 µM (inactive) in assay [12]. Besides, the GI50 in assay [13] was 27.5 µM (inactive); in assay [14], 17.1 µM (inactive); in assay [15], 22.7 µM (inactive); in [16] it was 26.9 µM (inactive); in assay [17], 21.8 µM (inactive); in assay [18], 23.4 µM (inactive). In addition, the GI50 in [19] was 20.6 µM (inactive); in [20] it was 20.5 µM (inactive).

With `CCOC(=O)/C=C(\C)Sc1cc(O)c2ccccc2c1O`, the GI50 in assay [1] is 13.2 µM (inactive); in assay [2] it was 18.8 µM (inactive); in [3], 58.9 µM (inactive); in [4], 8.05 µM (inactive); in [5], 17.3 µM (inactive); in [6], 6.64 µM (inactive). Moreover, the GI50 in assay [7] was 27.9 µM (inactive); in assay [8] it was 12 µM (inactive); in assay [9], 24.8 µM (inactive); in assay [10], 18.5 µM (inactive); in [11] it was 14.4 µM (inactive); in assay [12] it was 28.6 µM (inactive). Moreover, the GI50 in assay [13] is 2.94 µM (inactive); in [14], 31.1 µM (inactive); in assay [15] it was 22.2 µM (inactive); in assay [16] it was 14.9 µM (inactive); in assay [17] it was 9.66 µM (inactive); in [18], 24.4 µM (inactive). The GI50 in assay [19] was 10.1 µM (inactive); in [20], 30.4 µM (inactive).

As for `OCC1OC(NCCNCCNC2OC(CO)C(O)C(O)C2O)C(O)C(O)C1O` (stereo not given), the GI50 in [1], in assay [2], in assay [3], in assay [4], in assay [5] and in [6] was > 100 µM (inactive) each time. The GI50 in assay [7], in [8], in assay [9], in assay [10], in assay [11] and in assay [12] was > 100 µM (inactive) each time. The GI50 in assay [13], in [14], in assay [15], in [16], in [17] and in [18] was > 100 µM (inactive) each time. In addition, the GI50 in assay [19] and in assay [20] was > 100 µM (inactive) throughout.

Consider `COc1ccc2c(c1)CC[C@@H]1[C@@H]2CC[C@]2(C)/C(=N/OCCN3CCCC3)CC[C@@H]12`, for which the GI50 in [1] is 1.39 µM (inactive); in assay [2] it was 1.75 µM (inactive); in assay [3], 2.65 µM (inactive); in [4] it was 1.93 µM (inactive); in assay [5] it was 1.67 µM (inactive); in assay [6] it was 1.49 µM (inactive). Besides, the GI50 in assay [7] was 4.57 µM (inactive); in [8] it was 4.51 µM (inactive); in [9], 1.5 µM (inactive); in [10], 3.8 µM (inactive); in [11] it was 11.1 µM (inactive); in [12], 5.82 µM (inactive). Also, the GI50 in assay [13] was 3.21 µM (inactive); in [14], 1.82 µM (inactive); in [15] it was 0.766 µM (active); in assay [16], 1.92 µM (inactive); in [17] it was 1.63 µM (inactive); in assay [18] it was 2.79 µM (inactive). Besides, the GI50 in assay [19] was 3 µM (inactive); in assay [20] it was 5.94 µM (inactive).

Turning to `ON[C@H]1C[C@@H](n2cnc3c(NC4CC4)ncnc32)[C@H](O)[C@@H]1O`, the GI50 in [1], in [2], in assay [3], in assay [4], in [5] and in assay [6] was > 100 µM (inactive) each time. In addition, the GI50 in assay [7], in assay [8], in [9], in assay [10], in assay [11] and in [12] was > 100 µM (inactive) each time. In addition, the GI50 in assay [13], in assay [14], in [15], in assay [16], in assay [17] and in assay [18] was > 100 µM (inactive) in each case. Moreover, the GI50 in [19] and in assay [20] was > 100 µM (inactive) in each case.

As for `C[C@@H](Br)[C@@H]1CC[C@H]2c3[nH]c4ccccc4c3CCN2C1`, the GI50 in [1] was 24.4 µM (inactive); in assay [2], 27.4 µM (inactive); in [3] it was 13.3 µM (inactive); in assay [4], 17.7 µM (inactive); in [5], 13.5 µM (inactive); in assay [6] it was 17.5 µM (inactive). Moreover, the GI50 in assay [7] is 33.1 µM (inactive); in assay [8], 12.1 µM (inactive); in assay [9], 13.6 µM (inactive); in assay [10] it was 31.2 µM (inactive); in assay [11], 20.1 µM (inactive); in [12], 15.6 µM (inactive). In addition, the GI50 in [13] is 16.5 µM (inactive); in assay [14] it was 14.5 µM (inactive); in assay [15], 25 µM (inactive); in assay [16] it was 20.4 µM (inactive); in assay [17], 18.8 µM (inactive); in assay [18], 34.4 µM (inactive). Besides, the GI50 in [19] is 13.2 µM (inactive); in assay [20] it was 20.5 µM (inactive).

`CC1(c2ccc(Cl)cc2)N=C(NCCO)c2ccccc21` (stereo not given): the GI50 in assay [1] was 9.75 µM (inactive); in [2], 17.1 µM (inactive); in assay [3] it was 37.8 µM (inactive); in assay [4], 8.49 µM (inactive); in assay [5] it was 13.5 µM (inactive); in assay [6], 2.9 µM (inactive). Further, the GI50 in assay [7] is > 100 µM (inactive); in assay [8], 22.9 µM (inactive); in [9], 2.74 µM (inactive); in [10], 18.6 µM (inactive); in [11], 14.7 µM (inactive); in assay [12], 56.1 µM (inactive). Further, the GI50 in assay [13] is 15.9 µM (inactive); in assay [14], 12 µM (inactive); in [15] it was 5.74 µM (inactive); in assay [16] it was 16.3 µM (inactive); in assay [17] it was 17.9 µM (inactive); in assay [18], 19.2 µM (inactive). Besides, the GI50 in [19] is 26.4 µM (inactive); in [20], 13.8 µM (inactive).
